Laboratory results from patent publication US4869900A, “Pharamaceutical composition containing ubidecarenone” (Zambon S.p.A., priority 1985, dated 1989).

How the values were obtained:
[1] = Stability of CoQ10 in the compositions (one year at 30° C.); format: physicochemical; settings: after one year at 30° C., in the compositions or pharmaceutical preparations according to the invention
[2] = takes place through the lymphatic system; cited from earlier work
[3] = system: cardiac affections such as cardiac deficiency, ischemic disease; settings: treatment of several cardiac affections such as cardiac deficiency; cited from earlier work

For `COC1=C(OC)C(=O)C(C/C=C(\C)CC/C=C(\C)CC/C=C(\C)CC/C=C(\C)CC/C=C(\C)CC/C=C(\C)CC/C=C(\C)CC/C=C(\C)CC/C=C(\C)CCC=C(C)C)=C(C)C1=O` [CoQ10, Coenzyme Q10], which “degradation of CoQ10” value [1] is on record?
The value was “no degradation”.

And the absorption [2]?
The absorption was “scarce”.

And the clinical effectiveness [3]?
Its clinical effectiveness is “clinically effective”.
